Measured values from patent publication US11596639B2, “Substituted indole Mcl-1 inhibitors” (Vanderbilt University, priority 2016, dated 2023).
Read-outs that look alike come from different tables or passages of the source.

Key:
Mcl-1 = Mcl-1 (Homo sapiens (Human), UniProt Q07820); test: Fluorescence polarization anisotropy (FPA) competition assay, FITC-Bak or FITC-Bim BH3 peptide; format: binding; conditions: read-out: Ki for Inhibition of Mcl-1 by FPA assay
[1] = system: H929 human cancer cell lines; test: Cellular viability / proliferation (Cell TiterGlo, 72 h); format: cell-based
Outline: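 Plating is at 1,000 cells/well in 10% FBS medium; after 24 h, compound is added as a 2-fold series starting at 50 μM with under 1% DMSO.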

[2] = Homo sapiens, NCI-H929, 72 h, read-out: GI50 on cellular proliferation of H929 human cancer cell lines, H929 cells, 72 h, Cell TiterGlo, 10% FBS
[3] = H929 cells, 72 h, Cell TiterGlo, 10% FBS, read-out: GI50 on cellular proliferation of H929 human cancer cell lines

Sequence of Mcl-1 (Q07820 172-327): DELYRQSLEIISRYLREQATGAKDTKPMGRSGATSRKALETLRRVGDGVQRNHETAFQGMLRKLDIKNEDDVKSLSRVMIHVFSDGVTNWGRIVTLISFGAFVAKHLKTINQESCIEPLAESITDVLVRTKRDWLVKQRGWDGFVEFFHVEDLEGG

Row | Structure (SMILES) | Ki (Mcl-1) | GI50 [1, 2] | GI50 [1, 3]
1 | Cc1cc(OCCCc2c3n(c4c(-c5c(C)n[nH]c5C)c(Cl)ccc24)CCCN(c2cc(C(=O)O)c4ccn(C)c4c2)C3=O)cc(C)c1Cl [Example 58, 6-(8-Chloro-11-(3-(4-chloro-3,5-dimethylphenoxy)propyl)-7-(3,5-dimethyl-1H-pyrazol-4-yl)-1-oxo-4,5-dihydro-1H-[1,4]diazepino[1,2-a]indol-2(3H)-yl)-1-methyl-1H-indole-4-carboxylic acid] | < 1 nM | 3000 nM | 
2 | Cc1cc(OCCCc2c3n(c4c(-c5c(C)nn(C)c5C)c(Cl)ccc24)[C@H](C)CN(c2cccc4c2CCC4=O)C3=O)cc(C)c1Cl [Example 203, (R)-7-Chloro-10-(3-(4-chloro-3,5-dimethylphenoxy)propyl)-4-methyl-2-(1-oxo-2,3-dihydro-1H-inden-4-yl)-6-(1,3,5-trimethyl-1H-pyrazol-4-yl)-3,4-dihydropyrazino[1,2-a]indol-1(2H)-one] | 6 nM | 3900 nM | 
3 | Cc1cc(OCCCc2c3n(c4c(-c5c(C)nn(C)c5C)c(Cl)ccc24)CCCN(c2cc(C(=O)O)c4cn(CCN5CCOCC5)nc4c2)C3=O)cc(C)c1Cl [Example 12, 6-[8-Chloro-11-[3-(4-chloro-3,5-dimethyl-phenoxy)propyl]-1-oxo-7-(1,3,5-trimethylpyrazol-4-yl)-4,5-dihydro-3H-[1,4]diazepino[1,2-a]indol-2-yl]-2-(2-morpholinoethyl)indazole-4-carboxylic acid] | 1.2 nM | 8300 nM | 
4 | Cc1cc(OCCCc2c3n(c4c(-c5c(C)nn(C)c5C)c(Cl)ccc24)[C@H](C)CN(c2cn(C)c4ccc(C5=NCCO5)cc24)C3=O)cc(C)c1Cl [Example 428, (R)-7-Chloro-10-(3-(4-chloro-3,5-dimethylphenoxy)propyl)-2-(5-(4,5-dihydrooxazol-2-yl)-1-methyl-1H-indol-3-yl)-4-methyl-6-(1,3,5-trimethyl-1H-pyrazol-4-yl)-3,4-dihydropyrazino[1,2-a]indol-1(2H)-one] | 2 nM | 920 nM | 
5 | Cc1cc(OCCCc2c3n(c4c(-c5c(C)ncnc5C)c(Cl)ccc24)CCCN(c2cccc4cc(C(=O)O)ccc24)C3=O)cc(C)c1Cl [Example 213, 5-[8-Chloro-11-[3-(4-chloro-3,5-dimethyl-phenoxy)propyl]-7-(4,6-dimethylpyrimidin-5-yl)-1-oxo-4,5-dihydro-3H-[1,4]diazepino[1,2-a]indol-2-yl]naphthalene-2-carboxylic acid] | < 1 nM | < 200 nM | 
6 | Cc1cc(OCCCc2c3n(c4c(-c5c(C)nn(C)c5C)c(Cl)ccc24)[C@H](C)CN(c2cc(C(=O)O)c4cn(CCN5CCOCC5)nc4c2)C3=O)cc(C)c1Cl [Example 57, (R)-6-(7-chloro-10-(3-(4-chloro-3,5-dimethylphenoxy)propyl)-4-methyl-1-oxo-6-(1,3,5-trimethyl-1H-pyrazol-4-yl)-3,4-dihydropyrazino[1,2-a]indol-2(1H)-yl)-2-(2-morpholinoethyl)-2H-indazole-4-carboxylic acid] | < 1 nM | 1700 nM | 
7 | Cc1cc(OCCCc2c3n(c4c(-c5c(C)nn(CC6CCOCC6)c5C)c(Cl)ccc24)[C@H](C)CN(c2cn(C)c4cc(C(=O)O)ccc24)C3=O)cc(C)c1Cl [Example 308, (R)-3-(7-chloro-10-(3-(4-chloro-3,5-dimethylphenoxy)propyl)-6-(3,5-dimethyl-1-((tetrahydro-2H-pyran-4-yl)methyl)-1H-pyrazol-4-yl)-4-methyl-1-oxo-3,4-dihydropyrazino[1,2-a]indol-2(1H)-yl)-1-methyl-1H-indole-6-carboxylic acid] | < 1 nM | 410 nM | 
8 | Cc1cc(OCCCc2c3n(c4c(-c5c(C)nn(C)c5C)c(Cl)ccc24)CCCN(c2nn(CCN4CCOCC4)c4cc(C(=O)O)ccc24)C3=O)cc(C)c1Cl [Example 49, 3-(8-chloro-11-(3-(4-chloro-3,5-dimethylphenoxy)propyl)-1-oxo-7-(1,3,5-trimethyl-1H-pyrazol-4-yl)-4,5-dihydro-1H-[1,4]diazepino[1,2-a]indol-2(3H)-yl)-1-(2-morpholinoethyl)-1H-indazole-6-carboxylic acid] | < 1 nM | 2600 nM | 
9 | Cc1cc(OCCCc2c3n(c4c(-c5c(C)nn(C)c5C)c(Cl)ccc24)[C@H](C)CN(c2cc(C(=O)O)c4cnn(C)c4c2)C3=O)cc(C)c1Cl [Example 53, (R)-6-(7-chloro-10-(3-(4-chloro-3,5-dimethylphenoxy)propyl)-4-methyl-1-oxo-6-(1,3,5-trimethyl-1H-pyrazol-4-yl)-3,4-dihydropyrazino[1,2-a]indol-2(1H)-yl)-1-methyl-1H-indazole-4-carboxylic acid] | < 1 nM | 500 nM | 
10 | Cc1cc(OCCCc2c3n(c4c(-c5c(C)nn(C)c5C)c(Cl)ccc24)[C@H](C)CN(c2cn(C)c4ccc(C(=O)Nc5cccnc5)cc24)C3=O)cc(C)c1Cl [Example 291, 3-[(4R)-7-chloro-10-[3-(4-chloro-3,5-dimethyl-phenoxy)propyl]-4-methyl-1-oxo-6-(1,3,5-trimethylpyrazol-4-yl)-3,4-dihydropyrazino[1,2-a]indol-2-yl]-1-methyl-N-(3-pyridyl)indole-5-carboxamide] | 1.1 nM | 1000 nM | 
11 | Cc1cccnc1Cn1c(C(=O)O)cc2cccc(N3C[C@@H](C)n4c(c(CCCOc5cc(C)c(Cl)c(C)c5)c5ccc(Cl)c(-c6c(C)nn(C)c6C)c54)C3=O)c21 [Example 387, (R)-7-(7-Chloro-10-(3-(4-chloro-3,5-dimethylphenoxy)propyl)-4-methyl-1-oxo-6-(1,3,5-trimethyl-1H-pyrazol-4-yl)-3,4-dihydropyrazino[1,2-a]indol-2(1H)-yl)-1-((3-methylpyridin-2-yl)methyl)-1H-indole-2-carboxylic acid] | 2.1 nM | 3600 nM | 
12 | COc1cnc(-c2ccc3c(c2)c(N2C[C@@H](C)n4c(c(CCCOc5cc(C)c(Cl)c(C)c5)c5ccc(Cl)c(-c6c(C)nn(C)c6C)c54)C2=O)cn3C)nc1 [Example 465, (R)-7-Chloro-10-(3-(4-chloro-3,5-dimethylphenoxy)propyl)-2-(5-(5-methoxypyrimidin-2-yl)-1-methyl-1H-indol-3-yl)-4-methyl-6-(1,3,5-trimethyl-1H-pyrazol-4-yl)-3,4-dihydropyrazino[1,2-a]indol-1(2H)-one] | 1.5 nM | 690 nM | 
13 | CCn1nc2c(N3C[C@@H](C)n4c(c(CCCOc5cc(C)c(Cl)c(C)c5)c5ccc(Cl)c(-c6c(C)nn(C)c6C)c54)C3=O)cccc2c1C(=O)O [Example 117, (R)-7-(7-chloro-10-(3-(4-chloro-3,5-dimethylphenoxy)propyl)-4-methyl-1-oxo-6-(1,3,5-trimethyl-1H-pyrazol-4-yl)-3,4-dihydropyrazino[1,2-a]indol-2(1H)-yl)-2-ethyl-2H-indazole-3-carboxylic acid] | < 1 nM | 390 nM | 
14 | Cc1cc(OCCCc2c3n(c4c(-c5c(C)nn(C)c5C)c(Cl)ccc24)[C@H](C)CN(c2cn(C)c4cc(-c5nn[nH]n5)ccc24)C3=O)cc(C)c1Cl [Example 236, (R)-7-chloro-10-(3-(4-chloro-3,5-dimethylphenoxy)propyl)-4-methyl-2-(1-methyl-6-(2H-tetrazol-5-yl)-1H-indol-3-yl)-6-(1,3,5-trimethyl-1H-pyrazol-4-yl)-3,4-dihydropyrazino[1,2-a]indol-1(2H)-one] | < 1 nM | 1100 nM | 
15 | Cc1cc(N2C[C@@H](C)n3c(c(CCCOc4cc(C)c(Cl)c(C)c4)c4ccc(Cl)c(-c5c(C)nc(CN6CCOCC6)nc5C)c43)C2=O)c2c(c1)cc(C(=O)O)n2C [Example 416, (R)-7-(7-Chloro-10-(3-(4-chloro-3,5-dimethylphenoxy)propyl)-6-(4,6-dimethyl-2-(morpholinomethyl)pyrimidin-5-yl)-4-methyl-1-oxo-3,4-dihydropyrazino[1,2-a]indol-2(1H)-yl)-1,5-dimethyl-1H-indole-2-carboxylic acid] | < 1 nM | < 200 nM | 
16 | Cc1cc(OCCCc2c3n(c4c(-c5c(C)nn(C)c5C)c(Cl)ccc24)[C@H](C)CN(c2ccc(OCc4ccccc4)c4c2cc(C(=O)O)n4C)C3=O)cc(C)c1Cl [Example 312, (M, R)-7-(benzyloxy)-4-(7-chloro-10-(3-(4-chloro-3,5-dimethylphenoxy)propyl)-4-methyl-1-oxo-6-(1,3,5-trimethyl-1H-pyrazol-4-yl)-3,4-dihydropyrazino[1,2-a]indol-2(1H)-yl)-1-methyl-1H-indole-2-carboxylic acid] | 1.9 nM |  | 5700 nM
17 | Cc1cc(OCCCc2c3n(c4c(-c5c(C)nn(C)c5C)c(Cl)ccc24)[C@H](C)CN(c2cccc4cc5n(c24)CCN(C)C5=O)C3=O)cc(C)c1Cl [Example 226, (4R)-7-chloro-10-[3-(4-chloro-3,5-dimethyl-phenoxy)propyl]-4-methyl-2-(2-methyl-1-oxo-3,4-dihydropyrazino[1,2-a]indol-6-yl)-6-(1,3,5-trimethylpyrazol-4-yl)-3,4-dihydropyrazino[1,2-a]indol-1-one] | 4.9 nM | 2600 nM | 
18 | Cc1cc(OCCCc2c3n(c4c(-c5c(C)nc(CN6CCCC6)nc5C)c(Cl)ccc24)CCCN(c2cn(C)c4ccc(C(=O)O)cc24)C3=O)cc(C)c1Cl [Example 373] | 1.6 nM |  | 1200 nM
19 | Cc1cc(OCCCc2c3n(c4c(-c5c(C)nn(C)c5C)c(Cl)ccc24)[C@H](C)CN(c2cn(C)c4cc(C(=O)O)ccc24)C3=O)cc(C)c1Cl [Example 88, (R)-3-(7-Chloro-10-(3-(4-chloro-3,5-dimethylphenoxy)propyl)-4-methyl-1-oxo-6-(1,3,5-trimethyl-1H-pyrazol-4-yl)-3,4-dihydropyrazino[1,2-a]indol-2(1H)-yl)-1-methyl-1H-indole-6-carboxylic acid] | < 1 nM | 290 nM | 
